Earlier results on one compound are cited in patent US20150174160A1, “METHODS FOR TREATING, DIAGNOSING AND/OR MONITORING PROGRESSION OF OXO ASSOCIATED STATES” (priority 2012, published 2015).

For this data set the following is noted: for 2 years in humans.

On to `O=C(O)CCCCC1CCSS1` (stereo not drawn) [ALA, alpha-lipoic acid], for which the safe dose entry is given as “up to 2 grams daily”.
